Assay [1] concerns the target 5-hydroxytryptamine receptor 1B (Homo sapiens) (UniProt P28222). Description: Displacement of [3H]5-CT from human 5-HT1BR expressed in HEK cell membranes at 10 uM incubated for 90 mins under dark condition by microbeta scintillation counting method relative to control. Particulars: HEK293. For orientation: In a radioligand displacement assay an active substance lowers the binding of a labelled ligand.

Another assay deals with T1, Adenosine receptor A1 (Homo sapiens, UniProt P30542).
T1 sequence (P30542 whole entry): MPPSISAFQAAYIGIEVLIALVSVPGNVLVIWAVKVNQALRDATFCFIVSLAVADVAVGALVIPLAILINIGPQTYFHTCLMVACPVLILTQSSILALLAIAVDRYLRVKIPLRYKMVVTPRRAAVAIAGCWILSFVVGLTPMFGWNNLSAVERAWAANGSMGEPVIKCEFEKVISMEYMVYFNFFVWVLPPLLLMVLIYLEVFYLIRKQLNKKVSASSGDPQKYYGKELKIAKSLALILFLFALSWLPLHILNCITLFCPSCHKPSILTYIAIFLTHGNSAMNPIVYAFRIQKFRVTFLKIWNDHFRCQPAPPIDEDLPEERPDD
Nature of the assay: Displacement of [3H]N6-phenylisopropyladenosine from recombinant human A1AR expressed in CHO cell membranes after 60 mins by liquid scintillation counting method.

Assay [2] addresses T2, 5-hydroxytryptamine receptor 2C (Homo sapiens, UniProt P28335).
T2 sequence (P28335 whole entry): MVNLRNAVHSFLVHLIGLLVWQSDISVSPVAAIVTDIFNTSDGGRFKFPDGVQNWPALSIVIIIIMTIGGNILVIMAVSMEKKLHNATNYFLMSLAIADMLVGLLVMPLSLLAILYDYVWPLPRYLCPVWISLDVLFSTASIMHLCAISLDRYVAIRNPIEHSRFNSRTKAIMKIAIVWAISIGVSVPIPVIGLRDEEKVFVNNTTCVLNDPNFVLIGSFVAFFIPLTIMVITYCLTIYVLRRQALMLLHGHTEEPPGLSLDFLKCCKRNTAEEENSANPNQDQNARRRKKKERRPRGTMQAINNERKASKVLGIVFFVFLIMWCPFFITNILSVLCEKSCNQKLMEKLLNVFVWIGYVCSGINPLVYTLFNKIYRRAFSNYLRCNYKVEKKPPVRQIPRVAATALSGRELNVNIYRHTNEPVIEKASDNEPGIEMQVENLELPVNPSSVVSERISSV
Nature of the assay: Displacement of [3H]mesulergine from human 5-HT2CR expressed in Flp-In HEK cell membranes incubated for 90 mins under dark condition by microbeta scintillation counting method. On the set-up: species or system HEK293.

In assay [3] the target is 5-hydroxytryptamine receptor 1E (Homo sapiens) (UniProt P28566). Nature of the assay: Displacement of [3H]5-HT from human 5-HT1E receptor expressed in HEK cell membranes at 10 uM incubated for 90 mins under dark condition by microbeta scintillation counting method relative to control. Conditions: HEK293.
Chain of 5-hydroxytryptamine receptor 1E (Homo sapiens) (P28566 whole entry): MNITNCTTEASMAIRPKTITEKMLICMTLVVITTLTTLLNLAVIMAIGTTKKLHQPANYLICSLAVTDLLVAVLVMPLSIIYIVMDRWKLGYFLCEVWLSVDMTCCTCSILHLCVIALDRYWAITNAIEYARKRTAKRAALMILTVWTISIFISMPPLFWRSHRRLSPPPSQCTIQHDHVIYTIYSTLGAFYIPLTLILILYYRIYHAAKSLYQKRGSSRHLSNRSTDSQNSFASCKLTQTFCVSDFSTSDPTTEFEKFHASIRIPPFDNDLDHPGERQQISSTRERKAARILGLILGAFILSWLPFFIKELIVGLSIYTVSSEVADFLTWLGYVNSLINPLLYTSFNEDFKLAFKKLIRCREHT
The target of assay [4] is 5-hydroxytryptamine receptor 1D (Homo sapiens) (UniProt P28221). Description: Displacement of [3H]5-CT from human 5-HT1D receptor expressed in HEK-T cell membranes at 10 uM incubated for 90 mins under dark condition by microbeta scintillation counting method relative to control.
Chain of 5-hydroxytryptamine receptor 1D (Homo sapiens) (P28221 whole entry): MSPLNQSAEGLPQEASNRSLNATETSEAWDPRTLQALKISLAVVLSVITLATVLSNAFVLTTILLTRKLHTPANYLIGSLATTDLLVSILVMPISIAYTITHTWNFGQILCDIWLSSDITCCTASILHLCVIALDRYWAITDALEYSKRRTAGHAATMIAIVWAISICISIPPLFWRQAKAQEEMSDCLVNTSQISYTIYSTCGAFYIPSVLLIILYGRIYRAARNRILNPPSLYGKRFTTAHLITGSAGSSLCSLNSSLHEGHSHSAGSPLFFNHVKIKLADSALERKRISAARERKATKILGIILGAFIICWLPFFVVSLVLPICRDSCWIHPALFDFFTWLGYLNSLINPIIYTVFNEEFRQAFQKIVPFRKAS
The target of assay [5] is T3, 5-hydroxytryptamine receptor 1A (Homo sapiens) (UniProt P08908).
T3 sequence (whole entry): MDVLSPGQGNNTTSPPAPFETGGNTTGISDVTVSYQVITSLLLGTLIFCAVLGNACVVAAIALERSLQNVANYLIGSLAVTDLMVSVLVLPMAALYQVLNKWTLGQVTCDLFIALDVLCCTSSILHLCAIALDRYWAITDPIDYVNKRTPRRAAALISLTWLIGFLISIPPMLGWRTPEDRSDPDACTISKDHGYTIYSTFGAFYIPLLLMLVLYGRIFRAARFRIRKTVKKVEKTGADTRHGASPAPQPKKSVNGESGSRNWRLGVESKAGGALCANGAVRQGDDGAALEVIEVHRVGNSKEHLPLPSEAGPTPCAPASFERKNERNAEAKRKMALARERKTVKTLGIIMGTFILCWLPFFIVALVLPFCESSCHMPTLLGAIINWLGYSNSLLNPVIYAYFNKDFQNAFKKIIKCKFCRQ
Nature of the assay: Displacement of [3H]WAY100635 from human 5-HT1AR expressed in CHO cell membranes at 10 uM incubated for 90 mins under dark condition by microbeta scintillation counting method relative to control.

The target in assay [6] is T4, 5-hydroxytryptamine receptor 3A (Homo sapiens) (UniProt P46098).
T4 sequence (whole entry): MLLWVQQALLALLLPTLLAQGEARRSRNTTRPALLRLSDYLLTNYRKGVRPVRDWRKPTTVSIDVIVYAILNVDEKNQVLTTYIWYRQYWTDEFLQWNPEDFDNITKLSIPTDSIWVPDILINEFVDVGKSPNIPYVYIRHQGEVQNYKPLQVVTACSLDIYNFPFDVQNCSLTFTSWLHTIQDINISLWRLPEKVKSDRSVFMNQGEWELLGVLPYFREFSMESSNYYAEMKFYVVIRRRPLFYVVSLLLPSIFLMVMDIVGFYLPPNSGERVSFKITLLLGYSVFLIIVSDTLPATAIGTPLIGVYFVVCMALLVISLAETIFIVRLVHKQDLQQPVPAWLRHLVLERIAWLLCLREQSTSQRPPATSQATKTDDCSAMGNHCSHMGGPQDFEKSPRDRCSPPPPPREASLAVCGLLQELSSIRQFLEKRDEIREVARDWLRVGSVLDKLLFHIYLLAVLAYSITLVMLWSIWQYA
Nature of the assay: Displacement of [3H]GR65630 from human 5-HT3 receptor expressed in HEK-T cell membranes at 10 uM incubated for 90 mins under dark condition by microbeta scintillation counting method relative to control.

The target in assay [7] is T5, 5-hydroxytryptamine receptor 2A (Homo sapiens, UniProt P28223). Description: Displacement of [3H]ketanserin from human 5-HT2A receptor expressed in HEK-T cell membranes incubated for 90 mins under dark condition by microbeta scintillation counting method.
T5 sequence (P28223 whole entry): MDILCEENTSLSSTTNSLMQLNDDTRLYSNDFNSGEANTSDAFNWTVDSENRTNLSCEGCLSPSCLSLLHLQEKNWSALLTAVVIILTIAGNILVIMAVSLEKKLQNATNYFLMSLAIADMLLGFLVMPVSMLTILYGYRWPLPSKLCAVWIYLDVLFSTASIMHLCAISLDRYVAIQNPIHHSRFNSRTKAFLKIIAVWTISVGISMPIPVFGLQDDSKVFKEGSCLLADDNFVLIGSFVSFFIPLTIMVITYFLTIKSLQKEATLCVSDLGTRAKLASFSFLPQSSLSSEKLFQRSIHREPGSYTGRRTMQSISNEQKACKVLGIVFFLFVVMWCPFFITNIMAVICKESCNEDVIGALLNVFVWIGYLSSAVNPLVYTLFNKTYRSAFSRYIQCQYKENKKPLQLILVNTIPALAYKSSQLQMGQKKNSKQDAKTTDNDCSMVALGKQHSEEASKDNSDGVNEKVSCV
Assay [8] deals with 5-hydroxytryptamine receptor 7 (Homo sapiens) (UniProt P34969). Nature of the assay: Displacement of [3H]LSD from human 5-HT7A receptor expressed in HEK cell membranes at 10 uM incubated for 90 mins under dark condition by microbeta scintillation counting method relative to control. Conditions: HEK293.
Chain of 5-hydroxytryptamine receptor 7 (Homo sapiens) (P34969 whole entry): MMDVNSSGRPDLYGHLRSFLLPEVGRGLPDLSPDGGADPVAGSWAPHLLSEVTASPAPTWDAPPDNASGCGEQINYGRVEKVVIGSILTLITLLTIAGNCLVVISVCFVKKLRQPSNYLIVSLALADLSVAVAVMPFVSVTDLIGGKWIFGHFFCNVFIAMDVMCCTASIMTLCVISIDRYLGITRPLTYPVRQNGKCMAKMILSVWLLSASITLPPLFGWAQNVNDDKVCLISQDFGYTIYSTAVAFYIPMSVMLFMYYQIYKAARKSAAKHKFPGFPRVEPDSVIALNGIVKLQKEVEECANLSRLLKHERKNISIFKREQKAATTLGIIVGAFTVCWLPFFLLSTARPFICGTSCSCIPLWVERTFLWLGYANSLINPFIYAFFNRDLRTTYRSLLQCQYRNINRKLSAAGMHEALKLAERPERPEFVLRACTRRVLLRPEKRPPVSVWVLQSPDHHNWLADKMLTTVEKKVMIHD
In assay [9] the target is 5-hydroxytryptamine receptor 6 (Homo sapiens) (UniProt P50406). Nature of the assay: Displacement of [3H]LSD from human 5-HT6 receptor expressed in HEK cell membranes at 10 uM incubated for 90 mins under dark condition by microbeta scintillation counting method relative to control. Particulars: HEK293.
Chain of 5-hydroxytryptamine receptor 6 (Homo sapiens) (P50406 whole entry): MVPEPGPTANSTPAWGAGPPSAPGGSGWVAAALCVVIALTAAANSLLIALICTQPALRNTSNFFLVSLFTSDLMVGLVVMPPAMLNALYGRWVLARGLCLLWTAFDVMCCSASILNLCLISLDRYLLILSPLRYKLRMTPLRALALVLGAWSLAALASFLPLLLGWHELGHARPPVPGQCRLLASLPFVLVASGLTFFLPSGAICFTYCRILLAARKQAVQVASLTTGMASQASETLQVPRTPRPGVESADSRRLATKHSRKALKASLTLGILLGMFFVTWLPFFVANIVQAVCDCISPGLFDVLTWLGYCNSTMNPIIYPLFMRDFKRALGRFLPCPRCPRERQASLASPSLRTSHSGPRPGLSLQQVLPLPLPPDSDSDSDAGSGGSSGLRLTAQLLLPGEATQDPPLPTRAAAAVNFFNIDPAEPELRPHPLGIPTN
The target of assay [10] is T5, 5-hydroxytryptamine receptor 2A. Nature of the assay: Displacement of [3H]ketanserin from human 5-HT2A receptor expressed in HEK-T cell membranes at 10 uM incubated for 90 mins under dark condition by microbeta scintillation counting method relative to control.
Assay [11] has as its target T6, 5-hydroxytryptamine receptor 2C (Homo sapiens) (UniProt P28335).
T6 sequence (whole entry): T2 sequence (P28335 whole entry)
Description: Displacement of [3H]mesulergine from human 5-HT2CR expressed in Flp-In HEK cell membranes at 10 uM incubated for 90 mins under dark condition by microbeta scintillation counting method relative to control. Particulars: HEK293.

For assay [12], the target named is 5-hydroxytryptamine receptor 5A (Homo sapiens) (UniProt P47898). Nature of the assay: Displacement of [3H]LSD from human 5-HT5A receptor expressed in Flp-In-CHO cell membranes incubated for 90 mins under dark condition by microbeta scintillation counting method relative to control. On the set-up: concentration or dose not given beside the values.
Chain of 5-hydroxytryptamine receptor 5A (Homo sapiens) (P47898 whole entry): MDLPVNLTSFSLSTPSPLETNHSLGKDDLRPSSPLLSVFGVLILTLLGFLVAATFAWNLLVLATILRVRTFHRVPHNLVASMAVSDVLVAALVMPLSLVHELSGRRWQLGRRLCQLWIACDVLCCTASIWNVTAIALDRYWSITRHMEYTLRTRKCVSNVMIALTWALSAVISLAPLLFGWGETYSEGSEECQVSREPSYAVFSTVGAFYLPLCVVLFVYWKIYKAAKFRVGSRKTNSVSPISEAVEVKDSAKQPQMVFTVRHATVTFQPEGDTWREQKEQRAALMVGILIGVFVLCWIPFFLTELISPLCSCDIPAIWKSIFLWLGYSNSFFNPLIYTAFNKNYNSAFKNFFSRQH
Another assay deals with T7, Adenosine receptor A3 (Homo sapiens, UniProt P0DMS8).
T7 sequence (P0DMS8 whole entry): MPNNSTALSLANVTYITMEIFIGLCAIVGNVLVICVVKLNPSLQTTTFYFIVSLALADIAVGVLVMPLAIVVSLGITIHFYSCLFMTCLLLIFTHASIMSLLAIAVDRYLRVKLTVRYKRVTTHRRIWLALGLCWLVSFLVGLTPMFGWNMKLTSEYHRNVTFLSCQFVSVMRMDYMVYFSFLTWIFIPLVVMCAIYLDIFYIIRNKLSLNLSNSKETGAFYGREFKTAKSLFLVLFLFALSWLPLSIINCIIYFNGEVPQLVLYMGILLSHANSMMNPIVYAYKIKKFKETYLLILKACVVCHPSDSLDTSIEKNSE
Nature of the assay: Displacement of [125l]N 6-(4-amino-3-iodobenzyl)adenosine-5'-N-methyluronamide from recombinant human A3AR expressed in CHO cell membranes after 60 mins by gamma counting method.

The target of assay [13] is 5-hydroxytryptamine receptor 4 (Homo sapiens) (UniProt Q13639). Description: Displacement of [3H]GR113808 from human 5-HT4 receptor at 10 uM incubated for 90 mins under dark condition by microbeta scintillation counting method relative to control.
Chain of 5-hydroxytryptamine receptor 4 (Homo sapiens) (Q13639 whole entry): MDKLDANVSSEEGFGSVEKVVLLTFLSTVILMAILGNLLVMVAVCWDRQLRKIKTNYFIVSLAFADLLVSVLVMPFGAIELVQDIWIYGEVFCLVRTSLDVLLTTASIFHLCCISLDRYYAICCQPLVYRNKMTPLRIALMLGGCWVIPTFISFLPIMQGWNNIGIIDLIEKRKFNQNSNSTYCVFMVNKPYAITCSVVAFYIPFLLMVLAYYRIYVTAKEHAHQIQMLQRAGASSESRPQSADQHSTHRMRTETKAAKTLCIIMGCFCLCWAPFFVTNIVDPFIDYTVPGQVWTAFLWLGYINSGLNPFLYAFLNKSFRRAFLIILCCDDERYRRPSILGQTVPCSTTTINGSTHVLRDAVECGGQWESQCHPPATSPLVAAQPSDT
The target of assay [14] is T8, 5-hydroxytryptamine receptor 2B (Homo sapiens, UniProt P41595). Conditions: HEK293, at 10 µM.
T8 sequence (P41595 whole entry): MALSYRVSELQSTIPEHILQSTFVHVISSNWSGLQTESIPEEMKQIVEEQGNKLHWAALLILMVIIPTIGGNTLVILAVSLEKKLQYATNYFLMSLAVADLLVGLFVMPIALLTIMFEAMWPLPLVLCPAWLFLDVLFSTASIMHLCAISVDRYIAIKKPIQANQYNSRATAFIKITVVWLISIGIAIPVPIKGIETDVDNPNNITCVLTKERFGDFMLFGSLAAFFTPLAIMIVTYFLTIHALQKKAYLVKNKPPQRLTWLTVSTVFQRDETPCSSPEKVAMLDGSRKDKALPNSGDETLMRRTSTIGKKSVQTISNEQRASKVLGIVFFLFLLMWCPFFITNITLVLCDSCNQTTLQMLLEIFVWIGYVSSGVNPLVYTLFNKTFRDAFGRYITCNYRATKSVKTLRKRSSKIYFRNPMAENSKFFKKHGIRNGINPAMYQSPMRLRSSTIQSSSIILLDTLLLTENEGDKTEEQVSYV
Assay [15] has as its target T8, 5-hydroxytryptamine receptor 2B. Nature of the assay: biochemical. It is filed as cell-based, HEK293.
In a further assay the target is Adenosine receptor A2a (Homo sapiens, UniProt P29274). Nature of the assay: Displacement of [3 H]2-[p-(2-carboxyethyl)phenyl-ethylamino]-5'-N-ethylcarboxamidoadenosine from recombinant human adenosine receptor A2A expressed in HEK293 cell membranes at 10 uM after 60 mins by liquid scintillation counting method relative to control.
Chain of Adenosine receptor A2a (P29274 whole entry): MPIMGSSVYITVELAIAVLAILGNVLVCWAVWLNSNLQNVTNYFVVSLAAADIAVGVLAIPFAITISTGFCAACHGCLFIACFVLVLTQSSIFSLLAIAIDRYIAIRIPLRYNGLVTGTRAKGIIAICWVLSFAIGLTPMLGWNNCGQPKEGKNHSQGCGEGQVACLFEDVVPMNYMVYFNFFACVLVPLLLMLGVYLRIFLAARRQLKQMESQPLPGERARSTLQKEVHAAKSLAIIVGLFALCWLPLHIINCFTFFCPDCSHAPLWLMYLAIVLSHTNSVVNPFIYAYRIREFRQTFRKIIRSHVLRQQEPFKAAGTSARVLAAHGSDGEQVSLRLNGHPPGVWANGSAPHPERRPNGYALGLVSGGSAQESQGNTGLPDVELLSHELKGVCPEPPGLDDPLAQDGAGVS
The target of assay [16] is T9, Adenosine receptor A1 (Homo sapiens) (UniProt P30542).
T9 sequence (whole entry): T1 sequence (P30542 whole entry)
Nature of the assay: Displacement of [3H]N6-phenylisopropyladenosine from recombinant human A1AR expressed in CHO cell membranes at 10 uM after 60 mins by liquid scintillation counting method relative to control.

Activity calls are given as the source filed them. The rule behind the calls is not given here.

Chain of 5-hydroxytryptamine receptor 1B (Homo sapiens) (P28222 whole entry): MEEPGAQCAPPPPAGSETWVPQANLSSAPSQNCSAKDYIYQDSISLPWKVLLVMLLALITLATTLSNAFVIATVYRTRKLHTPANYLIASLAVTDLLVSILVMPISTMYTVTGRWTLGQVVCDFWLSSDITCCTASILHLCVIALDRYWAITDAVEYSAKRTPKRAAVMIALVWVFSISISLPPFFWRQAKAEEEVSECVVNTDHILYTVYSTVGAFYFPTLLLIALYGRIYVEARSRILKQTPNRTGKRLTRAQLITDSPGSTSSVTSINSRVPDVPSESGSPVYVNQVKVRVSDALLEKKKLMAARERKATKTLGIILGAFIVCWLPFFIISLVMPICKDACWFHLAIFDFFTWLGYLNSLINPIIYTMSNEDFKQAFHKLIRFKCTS

`CC(C)[C@@H](Nc1nc(Cl)nc2c1ncn2[C@H]1[C@H](O)[C@H](O)[C@]2(CO)C[C@H]12)C1CC1`: the inhibition in assay [1], in [3], in [4], in assay [5], in [6] and in [8] was under 50% throughout. The inhibition – broadly, the share of the control response that was lost under treatment – in assay [9] is under 50%; in assay [10] it was under 10%; in assay [11] it was over 50%; in [12] it was under 50%; in assay [13] it was under 50%. Further, the Ki (commonly the dissociation constant of the complex between target and ligand, obtained from inhibition or displacement) at Adenosine receptor A1 is 103 nM; in assay [2], 190 nM; in assay [7], over 10000 nM; on Adenosine receptor A3 it was 1240 nM.

With `CN(C)c1nc(Cl)nc2c1ncn2[C@H]1[C@H](O)[C@H](O)[C@]2(C(=O)O)C[C@H]12`, the inhibition in assay [1] is under 50%; in [14] it was over 50%; in [3] it was under 50%; in assay [4], under 50%; in assay [5], under 50%; on Adenosine receptor A2a, under 10%. Besides, the inhibition in [6] is under 50%; in [8], under 50%; in assay [9], under 50%; in [10], under 10%; in [11] it was over 50%; in [13] it was under 50%. Moreover, the Ki in assay [2] was 8000 nM; in [15] it was 4700 nM; in [7], over 10000 nM; at Adenosine receptor A3, 1080 nM. Also, in assay [12], the inhibition result was “Active”.

Consider `Clc1cccc(CNc2nc(Cl)nc3[nH]cnc23)c1`, for which the inhibition in assay [1] is under 50%; in assay [14], over 50%; in assay [3], under 50%; in [16], 45%; in assay [4] it was under 50%; in assay [5] it was under 50%. The inhibition is 37% on Adenosine receptor A2a; under 50% in [6]; under 50% in assay [8]; under 50% in assay [9]; 26% in assay [10]; over 50% in assay [11]. Moreover, the inhibition in [12] and in assay [13] was under 50% in each case. The Ki was 2160 nM in assay [15] and over 10000 nM in [7].

For the compound `CC(=O)NCCNC(=O)[C@@]12C[C@@H]1[C@@H](n1cnc3c(NC(C4CC4)C4CC4)nc(Cl)nc31)[C@H](O)[C@@H]2O`, the inhibition in assay [1] was under 50%; in [14], over 50%; in [3] it was under 50%; in assay [4], under 50%; in assay [5], under 50%; at Adenosine receptor A2a, 20%. Further, the inhibition in assay [6] is under 50%; in assay [8], under 50%; in [9], under 50%; in assay [10] it was under 10%; in assay [11], over 50%; in assay [12], under 50%. Also, the inhibition in [13] is under 50%. Besides, the Ki at Adenosine receptor A1 was 397 nM; in assay [2] it was 1700 nM; in assay [15] it was 332 nM; in assay [7], over 10000 nM; at Adenosine receptor A3, 1650 nM.

Consider `Fc1ccc(C#Cc2nc(NCc3cccc(Cl)c3)c3nc[nH]c3n2)cc1F`, for which the inhibition in assay [1] is under 50%; in assay [14], over 50%; in [3], under 50%; in assay [16] it was under 10%; in assay [4] it was under 50%; in assay [5], under 50%. Besides, the inhibition at Adenosine receptor A2a was under 10%; in assay [6], under 50%; in assay [8], under 50%; in assay [9], under 50%; in assay [10] it was under 10%; in assay [11] it was 11%. The inhibition in [12] and in assay [13] was under 50% in each case. The Ki in [7] was over 10000 nM.

As for `O=C(O)[C@@]12C[C@@H]1[C@@H](n1cnc3c(NC(C4CC4)C4CC4)nc(Cl)nc31)[C@H](O)[C@@H]2O`, the inhibition in assay [1] was under 50%; in [3], under 50%; in assay [4], under 50%; in assay [5], under 50%; at Adenosine receptor A2a it was under 10%; in [6], under 50%. Also, the inhibition in [8] is under 50%; in assay [9], under 50%; in assay [10], under 10%; in assay [11], over 50%; in assay [12] it was under 50%; in assay [13], under 50%. Besides, the Ki in assay [2] is 2580 nM; in assay [7], over 10000 nM; at Adenosine receptor A3 it was 5980 nM.

The values are drawn from ChEMBL document CHEMBL3862033 (J Med Chem, 2016).
